What all share (type): biochemical
The target of test [1] is T1, JAK2 (catalytic domain, His-tag) (Homo sapiens, UniProt O60674).
T1 construct: All four purified enzymes contain only the catalytic domain; His (N); purchased Carna Biosciences, Inc; host or cells: baculovirus expression system
In words: JAK kinase assay (HTRF, phosphorylation of TK substrate-biotin), JAK2. As to conditions: ATP at Km (4 μM); read-out: JAK2 kinase inhibitory activity (EC50 indicator). The gist of the method:
(§1)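 EC50 values come from HTRF signal of phospho-peptide detected by STK Ab Cryptate and Streptavidin-XL665 after overnight incubation. Reactions ran 20-30 min at RT in Hepes pH 7.0, 0.01% BSA, 1 mM DTT, with ATP at Km: 7, 4, 2 and 13 μM for JAK1, JAK2, JAK3, TYK2.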

Test [2] has as its target T2, TYK2 (aa 871-1187, catalytic domain, GST-tag) (Homo sapiens, UniProt P29597).
T2 construct: JAK1 (aa 850-1154) and TYK2 (aa 871-1187) are expressed with an N-terminally fused GST-tag; GST (N); purchased Carna Biosciences, Inc; host or cells: baculovirus expression system
T2 sequence (P29597 871-1187): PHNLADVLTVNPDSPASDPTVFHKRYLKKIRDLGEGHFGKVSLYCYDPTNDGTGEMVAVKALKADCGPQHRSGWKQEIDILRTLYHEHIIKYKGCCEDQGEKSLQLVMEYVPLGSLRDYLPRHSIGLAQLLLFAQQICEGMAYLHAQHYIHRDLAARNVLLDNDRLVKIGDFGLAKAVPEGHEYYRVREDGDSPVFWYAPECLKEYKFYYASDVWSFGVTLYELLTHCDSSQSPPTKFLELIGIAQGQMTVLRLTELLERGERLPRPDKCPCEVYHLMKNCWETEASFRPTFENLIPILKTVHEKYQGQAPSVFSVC
As to the kind of experiment: JAK kinase assay (HTRF, phosphorylation of TK substrate-biotin), TYK2. The conditions noted are these: ATP at Km (13 μM); read-out: TYK2 kinase inhibitory activity (EC50 indicator). The method, boiled down: as §1
A general note: TR-FRET usually uses a lanthanide donor and a delayed reading to cut background.

The target in test [3] is T3, JAK3 (catalytic domain, His-tag) (Homo sapiens, UniProt P52333).
T3 construct: All four purified enzymes contain only the catalytic domain; His (N); purchased Carna Biosciences, Inc; host or cells: baculovirus expression system
T3 sequence (P52333 822-1111 limits assumed): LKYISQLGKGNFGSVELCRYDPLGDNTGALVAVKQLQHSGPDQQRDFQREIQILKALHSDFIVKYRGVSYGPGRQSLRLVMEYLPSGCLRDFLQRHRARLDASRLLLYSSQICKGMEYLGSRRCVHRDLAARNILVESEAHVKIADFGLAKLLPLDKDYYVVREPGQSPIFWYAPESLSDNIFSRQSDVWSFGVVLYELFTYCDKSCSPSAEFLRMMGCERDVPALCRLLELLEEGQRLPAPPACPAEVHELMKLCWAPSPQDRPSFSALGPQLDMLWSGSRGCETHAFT
As to the kind of experiment: JAK kinase assay (HTRF, phosphorylation of TK substrate-biotin), JAK3. As to conditions: ATP at Km (2 μM); read-out: JAK3 kinase inhibitory activity (EC50 indicator). The method, boiled down: as §1

For test [4], the target named is T4, JAK1 (aa 850-1154, catalytic domain, GST-tag) (Homo sapiens, UniProt P23458).
T4 construct: JAK1 (aa 850-1154) and TYK2 (aa 871-1187) are expressed with an N-terminally fused GST-tag; GST (N); purchased Carna Biosciences, Inc; host or cells: baculovirus expression system
T4 sequence (P23458 850-1154): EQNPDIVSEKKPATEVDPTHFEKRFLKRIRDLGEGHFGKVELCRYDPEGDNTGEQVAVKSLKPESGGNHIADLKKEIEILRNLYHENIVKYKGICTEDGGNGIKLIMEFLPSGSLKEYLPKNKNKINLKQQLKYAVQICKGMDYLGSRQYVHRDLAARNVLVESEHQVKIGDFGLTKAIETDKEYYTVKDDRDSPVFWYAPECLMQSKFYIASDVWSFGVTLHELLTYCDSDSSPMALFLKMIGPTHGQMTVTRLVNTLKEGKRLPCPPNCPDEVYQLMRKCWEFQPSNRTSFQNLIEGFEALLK
In words: JAK kinase assay (HTRF, phosphorylation of TK substrate-biotin), JAK1. As to conditions: ATP at Km (7 μM); read-out: JAK1 kinase inhibitory activity (EC50 indicator). The method, boiled down: as §1

T1 sequence (O60674 849-1124 limits assumed): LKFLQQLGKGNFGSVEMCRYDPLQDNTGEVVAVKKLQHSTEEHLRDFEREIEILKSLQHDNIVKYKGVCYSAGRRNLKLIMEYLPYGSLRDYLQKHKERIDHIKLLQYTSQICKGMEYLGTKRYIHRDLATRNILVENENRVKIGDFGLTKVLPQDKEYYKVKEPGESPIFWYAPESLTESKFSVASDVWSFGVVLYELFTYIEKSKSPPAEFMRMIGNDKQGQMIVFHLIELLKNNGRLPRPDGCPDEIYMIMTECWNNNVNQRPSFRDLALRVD

What is called EC50 is the midpoint of the concentration-response curve. For the molecule `O=C(c1cnc2ccccc2n1)N1CCN(c2ncnc3[nH]ccc23)CC12CC2` [Example 161, [7-(7H-Pyrrolo[2,3-d]pyrimidin-4-yl)-4,7-diaza-spiro[2.5]oct-4-yl]-quinoxalin-2-yl-methanone], the EC50 in test [1], in test [2], in test [3] and in test [4] was less than 0.1 µM throughout.

As to `O=C(c1ccc2[nH]cnc2c1)N1CCN(c2ncnc3[nH]ccc23)CC12CC2` [Example 162, (1H-Benzoimidazol-5-yl)-[7-(7H-pyrrolo[2,3-d]pyrimidin-4-yl)-4,7-diaza-spiro[2.5]oct-4-yl]-methanone], the EC50 in test [1] is less than 0.1 µM; in test [2], greater than 0.5 µM; in test [3] it was 0.1 to 0.5 µM; in test [4] it was less than 0.1 µM.

In the case of `O=C(c1cnc2ccccc2c1)N1CCN(c2ncnc3[nH]ccc23)CC12CC2` [Example 163, [7-(7H-Pyrrolo[2,3-d]pyrimidin-4-yl)-4,7-diaza-spiro[2.5]oct-4-yl]-quinolin-3-yl-methanone], the EC50 in test [1] is less than 0.1 µM; in test [2] it was 0.1 to 0.5 µM; in test [3] it was greater than 0.5 µM; in test [4], less than 0.1 µM.

For `O=C(c1cccc2cccnc12)N1CCN(c2ncnc3[nH]ccc23)CC12CC2` [Example 164, [7-(7H-Pyrrolo[2,3-d]pyrimidin-4-yl)-4,7-diaza-spiro[2.5]oct-4-yl]-quinolin-8-yl-methanone], the EC50 in test [1] is less than 0.1 µM; in test [2] it was greater than 0.5 µM; in test [3] it was 0.1 to 0.5 µM; in test [4] it was 0.1 to 0.5 µM.

For `N#CC1(C(=O)N2CCN(c3ncnc4[nH]ccc34)CC23CC3)CC1` [Example 165, 1-[7-(7H-Pyrrolo[2,3-d]pyrimidin-4-yl)-4,7-diaza-spiro[2.5]octane-4-carbonyl]-cyclopropanecarbonitrile], the concentration giving a half-maximal response (EC50) in test [1] was less than 0.1 µM; in test [2], 0.1 to 0.5 µM; in test [3] it was less than 0.1 µM; in test [4], less than 0.1 µM.

Consider `O=C(c1cccc(O)n1)N1CCN(c2ncnc3[nH]ccc23)CC12CC2` [Example 166, (6-Hydroxy-pyridin-2-yl)-[7-(7H-pyrrolo[2,3-d]pyrimidin-4-yl)-4,7-diaza-spiro[2.5]oct-4-yl]-methanone], for which the half-maximal effective concentration (EC50) in test [1] is less than 0.1 µM; in test [2], greater than 0.5 µM; in test [3], 0.1 to 0.5 µM; in test [4] it was less than 0.1 µM.

With `N#CCCC(=O)N1CCN(c2ncnc3[nH]ccc23)CC12CC2` [Example 167, 4-Oxo-4-[7-(7H-pyrrolo[2,3-d]pyrimidin-4-yl)-4,7-diaza-spiro[2.5]oct-4-yl]-butyronitrile], the 50% effective concentration (EC50) was less than 0.1 µM in test [1], 0.1 to 0.5 µM in test [2], less than 0.1 µM in test [3] and less than 0.1 µM in test [4].

`O=C(CCc1ccccc1)N1[C@@H]2CC[C@@H]1CN(c1ncnc3[nH]ccc13)C2` [Example 168, 3-Phenyl-1-[3-(7H-pyrrolo[2,3-d]pyrimidin-4-yl)-3,8-diaza-bicyclo[3.2.1]oct-8-yl]-propan-1-one]: the EC50 was less than 0.1 µM in test [1], greater than 0.5 µM in test [2], 0.1 to 0.5 µM in test [3] and less than 0.1 µM in test [4].

Take `O=C(c1cc2ccccc2s1)N1[C@@H]2CC[C@@H]1CN(c1ncnc3[nH]ccc13)C2` [Example 169, Benzo[b]thiophen-2-yl-[3-(7H-pyrrolo[2,3-d]pyrimidin-4-yl)-3,8-diaza-bicyclo[3.2.1]oct-8-yl]-methanone]: the concentration for a half-maximal effect (EC50) was less than 0.1 µM in test [1], greater than 0.5 µM in test [2], less than 0.1 µM in test [3] and less than 0.1 µM in test [4].

Regarding `O=C(Cc1c[nH]c2ccccc12)N1[C@@H]2CC[C@@H]1CN(c1ncnc3[nH]ccc13)C2` [Example 170, 2-(1H-Indol-3-yl)-1-[3-(7H-pyrrolo[2,3-d]pyrimidin-4-yl)-3,8-diaza-bicyclo[3.2.1]oct-8-yl]-ethanone], the concentration for a half-maximal effect (EC50) in test [1] is 0.1 to 0.5 µM; in test [2], greater than 0.5 µM; in test [3], 0.1 to 0.5 µM; in test [4], 0.1 to 0.5 µM.

On to `O=C(Cc1ccncc1)N1[C@@H]2CC[C@@H]1CN(c1ncnc3[nH]ccc13)C2` [Example 171, 2-Pyridin-4-yl-1-[3-(7H-pyrrolo[2,3-d]pyrimidin-4-yl)-3,8-diaza-bicyclo[3.2.1]oct-8-yl]-ethanone], for which the EC50 is 0.1 to 0.5 µM in test [1], greater than 0.5 µM in test [2], greater than 0.5 µM in test [3] and 0.1 to 0.5 µM in test [4].

For the molecule `O=C(Cc1cccnc1)N1[C@@H]2CC[C@@H]1CN(c1ncnc3[nH]ccc13)C2` [Example 172, 2-Pyridin-3-yl-1-[3-(7H-pyrrolo[2,3-d]pyrimidin-4-yl)-3,8-diaza-bicyclo[3.2.1]oct-8-yl]-ethanone], the EC50 in test [1] is 0.1 to 0.5 µM; in test [2], greater than 0.5 µM; in test [3], greater than 0.5 µM; in test [4], greater than 0.5 µM.

In the case of `N#Cc1cccc(C(=O)N2[C@@H]3CC[C@@H]2CN(c2ncnc4[nH]ccc24)C3)c1` [Example 173, 3-[3-(7H-Pyrrolo[2,3-d]pyrimidin-4-yl)-3,8-diaza-bicyclo[3.2.1]octane-8-carbonyl]-benzonitrile], the half-maximal effective concentration (EC50) in test [1] was less than 0.1 µM; in test [2], 0.1 to 0.5 µM; in test [3], less than 0.1 µM; in test [4], less than 0.1 µM.

On to `N#CCc1ccc(C(=O)N2[C@@H]3CC[C@@H]2CN(c2ncnc4[nH]ccc24)C3)cc1` [Example 175, {4-[3-(7H-Pyrrolo[2,3-d]pyrimidin-4-yl)-3,8-diaza-bicyclo[3.2.1]octane-8-carbonyl]-phenyl}-acetonitrile], for which the EC50 in test [1] was less than 0.1 µM; in test [2] it was greater than 0.5 µM; in test [3], 0.1 to 0.5 µM; in test [4] it was less than 0.1 µM.

`CS(=O)(=O)NCCC(=O)N1[C@@H]2CC[C@@H]1CN(c1ncnc3[nH]ccc13)C2` [Example 176, N-{3-Oxo-3-[3-(7H-pyrrolo[2,3-d]pyrimidin-4-yl)-3,8-diaza-bicyclo[3.2.1]oct-8-yl]-propyl}-methanesulfonamide]: the EC50 in test [1] is 0.1 to 0.5 µM; in test [2], greater than 0.5 µM; in test [3], greater than 0.5 µM; in test [4], 0.1 to 0.5 µM.

For `O=C(c1ncco1)N1[C@@H]2CC[C@@H]1CN(c1ncnc3[nH]ccc13)C2` [Example 177, Oxazol-2-yl-[3-(7H-pyrrolo[2,3-d]pyrimidin-4-yl)-3,8-diaza-bicyclo[3.2.1]oct-8-yl]-methanone], the EC50 was 0.1 to 0.5 µM in test [1], greater than 0.5 µM in test [2], 0.1 to 0.5 µM in test [3] and 0.1 to 0.5 µM in test [4].

For the molecule `O=C(c1cccc(-c2ccccc2)c1)N1[C@@H]2CC[C@@H]1CN(c1ncnc3[nH]ccc13)C2` [Example 178, Biphenyl-3-yl-[3-(7H-pyrrolo[2,3-d]pyrimidin-4-yl)-3,8-diaza-bicyclo[3.2.1]oct-8-yl]-methanone], the 50% effective concentration (EC50) was 0.1 to 0.5 µM in test [1], greater than 0.5 µM in test [2], 0.1 to 0.5 µM in test [3] and 0.1 to 0.5 µM in test [4].

Turning to `N#Cc1cccc(CC(=O)N2[C@@H]3CC[C@@H]2CN(c2ncnc4[nH]ccc24)C3)c1` [Example 179, 3-{2-Oxo-2-[3-(7H-pyrrolo[2,3-d]pyrimidin-4-yl)-3,8-diaza-bicyclo[3.2.1]oct-8-yl]-ethyl}-benzonitrile], the EC50 in test [1] was 0.1 to 0.5 µM; in test [2] it was greater than 0.5 µM; in test [3], greater than 0.5 µM; in test [4] it was 0.1 to 0.5 µM.

These data come from patent publication US9346809B2 (LEO PHARMA A/S, priority 2009, dated 2016).
